# Measurements: patent publication US20260043793A1, “MICROFLUIDIC CELL SPHEROIDS AND ORGANOIDS CULTURE INSERT FOR DISEASE MODELING AND SCREENING OF THERAPEUTICS” (APRICELL BIOTECHNOLOGY INC., priority 2022, published 2026)
# Assays:
# Assay type in all cases: cell-based
# vimentin surface marker = experiment: Vimentin immunostaining of U251 spheroids (resistant and non-resistant) in collagen/HA ECM; conditions: 10 nm of Reelin, non-resistant in comparison to resistant spheroids
# Excerpt: The effect of recombinant Reelin on viability of the U251 cell spheroids or organoids was studied. […] Moreover, to study the invasive behavior of the resistant and non-resistant cell spheroids or organoids, they were embedded in Collagen/HA hydrogel. The method of cell spheroids or organoid embedding in the hydrogel is similar to that disclosed in example 1. In this study, the effect of Reelin protein in combination with ECM hydrogel on invasiveness of the cell spheroids or organoids and their invasion length using Vimentin immunostaining and florescent microscopy respectively was studied.
# Level of surface vimentin expression of the tumor cells was measured as an indication of invasiveness of cell spheroids or organoids with the ECM matrix.
# [1] = tested on: U251 cell spheroids or organoids; experiment: Effect of recombinant Reelin on viability of U251 spheroids (live-dead); conditions: increasing Reelin concentration from 1 to 100 nM
# Method: (§1) The effect of recombinant Reelin on viability of the U251 cell spheroids or organoids was studied. It was tested with 2 different concentrations of Reelin (1 and 100 nM) on cell spheroids or organoids in the device 10 or the sector 20. Moreover, to study the invasive behavior of the resistant and non-resistant cell spheroids or organoids, they were embedded in Collagen/HA hydrogel. The method of cell spheroids or organoid embedding in the hydrogel is similar to that disclosed in example 1. In this study, the effect of Reelin protein in combination with ECM hydrogel on invasiveness of the cell spheroids or organoids and their invasion length using Vimentin immunostaining and florescent microscopy respectively was studied.
# It is shown in live-dead fluorescent images by increasing the number of red cells stained with Propodeum iodide (PI) compared to the green cells stained with calcein AM after treatment with 100 nM Reelin.
# [2] = tested on: TMZ non-resistant U251 cell spheroids or organoids; experiment: Growth and invasion of TMZ non-resistant U251 spheroids in Collagen/HA ECM conditioned with Reelin
# Method: (§2) To investigate and compare the invasive behavior of TMZ resistant GBM cancer cells with non-resistant cell spheroids or organoids through the ECM hydrogel, we used TMZ resistant and non-resistant U251 cell lines to make cell spheroids or organoids in the device 10 or the sector 20. The method of U251 cell spheroids or organoid formation was similar to that disclosed above.
# as §1
# [3] = tested on: TMZ resistant U251 cell spheroids or organoids; experiment: Growth and invasion of TMZ resistant U251 spheroids in Collagen/HA ECM conditioned with Reelin; conditions: for average invasion length: Collagen/HA matrix
# Method: as §2, §1
# [4] = 10 nM Reelin, in response to TMZ
substance,measurement,setting,value
Reelin: recombinant Reelin protein used alone or in combination with ECM hydrogel,fluorescent intensity index of the vimentin surface marker,vimentin surface marker,higher fluorescent intensity index
same,cell viability,[1],significant decrease in cell viability
same,invasion length in Reelin treated matrix compared to normal ECM matrix,[2]; [4],higher invasion length
same,size increase of spheroids over time (diameter),"[2]; each Reelin concentration, day 0 to 3, compared with resistant spheroids",more significant
same,growth of cell spheroids or organoids (diameter),"[2]; higher concentrations of Reelin, day 3",more inhibitory effect on the growth
same,invasion length,"[2]; increasing concentrations of Reelin, Collagen/HA matrix",constantly increasing
same,average invasion length,[3]; 10 nM Reelin,around 400 μm
same,invasion length in Reelin conditioned matrix compared to normal matrix,[3]; [4],reverse
same,average invasion length,[3]; 100 nM Reelin,drops significantly
same,inhibitory effect on growth (diameter),"[3]; higher concentrations of Reelin, day 3, compared with non-resistant",less
